Results on 1 compound are retold here after patent publication US5468757A, “6-azaindole thromboxane synthase inhibitors” (Eli Lilly and Company, priority 1994, dated 1995).

The subject of experiment [1] is thromboxane synthase. Put plainly: Oral activity: serum TXB2 in rats one hour after oral dosing. Type of experiment: in vivo. As to conditions: blood one hour after dosing, mean ± SE, n = 3, dose 0: 340. On the procedure: The oral activity of 6-azaindole-1-hexanoic acid was established by treating rats via the oral route with solutions of the compound and one hour later collecting blood. The blood was allowed to clot in glass tubes for 1 hour at 37° C. Serum was collected after sedimentation of the clot by centrifugation at 2000 x g for 15 minutes in a Beckman table top centrifuge. The levels of TXB2 were measured in the serum by radioimmunoassay. Decreased levels of TXB2 indicate the presence of compound in the blood resulting from oral absorption. The results of these experiments are shown in Table 3 and document the availability of the compound via the oral route of administration and the dose-dependency of the desired inhibitory effect on serum TXB2.

Experiment [2] deals with cyclooxygenase and prostacyclin synthase. As to the kind of experiment: Serum 6-keto-PGF1a by radioimmunoassay in whole human blood (specificity of TSI). Type of experiment: cell-based. Particulars: for Serum 6-keto-PGF1a: whole human blood, mean ± SE, n = 3, vehicle 1.6 ± 0.2. On the procedure:
(§1) The test compound - 6-azaindole-1-hexanoic acid (the compound of Example 1, Part D) was dissolved in dimethylsulfoxide at varying concentrations. The compound solutions and dimethylsulfoxide alone (vehicle) were incubated with fresh whole human blood that had been anticoagulated with 0.38% trisodium citrate, for 30 minutes at 37° C. After 30 minutes, 0.025 ml of 0.5 M calcium chloride solution was added to each 1 ml of blood and further incubated for one hour at 37° C. Serum was prepared by centrifugation of the blood at 2000 x g for 15 minutes in a Beckman table top centrifuge. Serum TXB2 and 6-keto-PGF1a, the stable metabolites of and markers of synthesis of TXA2 and prostacyclin respectively, were measured by radioimmunoassay by commonly used test methods (see, Refs.,1 & 2 below). Results from the radioimmunoassay of TXB2 are shown in Table 1 and indicate the dose-dependent potency of the compound of Example 1, Part D as a thromboxane synthase inhibitor.
Data determined from the radioimmunoassay of serum 6-keto-PGF1a (reflecting prostacyclin generation) allowed a determination of the specificity of 6-azaindole-1-hexanoic acid for the inhibition of thromboxane synthase versus cyclooxygenase and prostacyclin synthase as indicated by the serum levels of 6-keto-PGF1a. These values decrease in the presence of a nonspecific inhibitor (i.e., aspirin) but are unchanged or increased by specific TSI. The data in Table 2 documents the expected dose-dependent stimulatory effect of the compound of 6-azaindole-1-hexanoic acid on human serum 6-keto-PGF1a levels and confirm the specific TSI by 6-azaindole-1-hexanoic acid.

For experiment [3], the target named is T1, thromboxane synthase (Homo sapiens, UniProt P24557).
T1 construct: incubated with fresh whole human blood that had been anticoagulated with 0.38% trisodium citrate; from tissue; host or cells: fresh whole human blood (citrated, recalcified)
T1 sequence (P24557 1-533): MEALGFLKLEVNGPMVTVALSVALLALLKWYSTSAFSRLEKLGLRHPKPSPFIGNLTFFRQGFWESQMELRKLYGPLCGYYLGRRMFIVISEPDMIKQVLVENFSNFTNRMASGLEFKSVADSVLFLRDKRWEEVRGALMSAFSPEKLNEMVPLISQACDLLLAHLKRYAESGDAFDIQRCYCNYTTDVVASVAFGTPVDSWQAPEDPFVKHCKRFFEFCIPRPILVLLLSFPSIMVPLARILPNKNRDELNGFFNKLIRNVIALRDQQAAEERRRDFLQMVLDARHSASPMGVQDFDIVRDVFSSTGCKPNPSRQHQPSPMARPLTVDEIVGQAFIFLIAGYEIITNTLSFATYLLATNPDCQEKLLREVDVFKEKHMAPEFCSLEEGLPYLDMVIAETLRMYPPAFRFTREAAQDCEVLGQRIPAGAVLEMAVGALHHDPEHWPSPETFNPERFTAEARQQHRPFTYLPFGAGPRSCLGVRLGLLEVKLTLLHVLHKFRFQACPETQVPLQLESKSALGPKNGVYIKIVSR
Put plainly: Thromboxane Synthase Inhibition (TSI) Assay: serum TXB2 by radioimmunoassay in whole human blood. It is filed as cell-based. Particulars: for Serum TXB2: mean ± SE, n = 3, vehicle 375. The procedure:
The ability of the compound of the present invention to be an effective thromboxane synthase inhibitor were evaluated in the following Thromboxane Synthase Inhibition (TSI) Assay with the results shown in Table 1 below:
Method for Thromboxane Synthase Inhibition (TSI) Test:
as §1

In the case of `O=C(O)CCCCCn1ccc2ccncc21` [Example 1 Part D, 6-azaindole-1-hexanoic acid], the “Serum TXB2” value in the experiment with thromboxane synthase [1] (1 mg/kg p.o.) amounted to 85.1 ng/mL; with thromboxane synthase [1] (10 mg/kg p.o.), 18.4 ng/mL; at thromboxane synthase [3] (0.01 μM compound), 235 ng/mL; on thromboxane synthase [3] (0.1 μM compound) it was 109 ng/mL; on thromboxane synthase [3] (1 μM compound) it was 18.8 ng/mL. Further, the “Serum 6-keto-PGF1a” value in experiment [2] (0.01 μM compound) amounted to 1.7 ± 0.1 ng/mL; in experiment [2] (0.1 μM compound) it was 2.4 ± 0.6 ng/mL; in experiment [2] (1 μM compound), 2.6 ± 0.7 ng/mL. Besides, the “Specificity for inhibition of thromboxane synthase versus cyclooxygenase and prostacyclin synthase” value in experiment [2] (judged from human serum 6-keto-PGF1a levels) is “specific TSI”. Besides, at thromboxane synthase [3] (serum TXB2, mean±SE, n=3, read-out: IC50 (concentration required to reduce thromboxane generation to 50% of vehicle)), the IC50 worked out at 23 ± 4.1 nM.
